From US11214803B2, “Modulators of YAP1 expression” (Ionis Pharmaceuticals, Inc., priority 2019, dated 2022)
Strand notation (5' to 3'): a small letter for the sugar, then the base; units joined by * are phosphorothioate-linked, units joined directly phosphodiester-linked; [ ] holds rarer units or linkages, { } end groups; capitals alone tell only the bases. k = constrained ethyl (cEt); [5mC] = 5-methylcytosine; d = 2'-deoxy (DNA)

Each substance was assayed on Yap1 mRNA (assay: Antisense inhibition of human Yap1 in A-431 cells by cEt gapmers, single dose (Example 4, RTS4814)). Conditions: Table 14; A-431 cells, 5,000 cells per well, free uptake, 2,000 nM, approximately 48 hours; RTS4814; normalized to RIBOGREEN; Yap1 mRNA relative to untreated control; * = targets amplicon region of primer probe set.
Format: cell-based
Method in brief: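 Values are % UTC: Yap1 mRNA by quantitative RT-PCR, normalized to RIBOGREEN total RNA. Cells were exposed ~48 h to 2,000 nM oligonucleotide without transfection. Oligonucleotides were 16-nucleoside gapmers with three cEt nucleosides per wing, ten-deoxy gap, P=S linkages throughout.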
With “1074400 (antisense kG*kA*kT*dT*dT*dA*dG*dA*dA*dT*dT*d[5mC]*dA*kG*kT*k[5mC]) [Compound 1074400]” the “YAP1 (% UTC)” value was 42 % UTC. For “1074656 (antisense kG*kA*k[5mC]*dT*dT*dA*dA*dT*dT*d[5mC]*dA*dA*dG*kA*kT*kT) [Compound 1074656]”, the “YAP1 (% UTC)” value was 31 % UTC. With “1075616 (kG*kT*kA*dA*dA*dA*d[5mC]*d[5mC]*dG*dA*dT*dT*dT*kT*kT*k[5mC]; antisense) [Compound 1075616]” the “YAP1 (% UTC)” value was 46 % UTC. In the case of “1074496 (kA*kA*kT*dA*dA*d[5mC]*d[5mC]*dA*dT*d[5mC]*d[5mC]*d[5mC]*dA*kA*kG*k[5mC]; antisense) [Compound 1074496]”, the “YAP1 (% UTC)” value is reported as 69 % UTC. “1075840 (k[5mC]*k[5mC]*kT*dA*dA*dA*dA*dT*dA*dG*dG*dA*dA*kT*kG*k[5mC]; antisense) [Compound 1075840]” was tested, and the “YAP1 (% UTC)” value was 89 % UTC. For “1075488 (antisense k[5mC]*kA*kG*dA*dA*dT*dA*dA*dG*dG*dG*dA*dG*kA*kT*k[5mC]) [Compound 1075488]”, the “YAP1 (% UTC)” value was 56 % UTC.

Same assay, conditions: Table 15; A-431 cells, 5,000 cells per well, free uptake, 2,000 nM, approximately 48 hours; RTS4814; normalized to RIBOGREEN; Yap1 mRNA relative to untreated control; * = targets amplicon region of primer probe set
In the case of “1075009 (antisense kA*kT*kA*dA*dT*d[5mC]*dG*dA*dA*d[5mC]*dA*dT*dT*kG*kT*kG) [Compound 1075009]”, the “YAP1 (% UTC)” value is reported as 43 % UTC. In the case of “1074305 (antisense k[5mC]*kA*k[5mC]*d[5mC]*dT*dG*d[5mC]*d[5mC]*dG*dA*dA*dG*d[5mC]*kA*kG*kT) [Compound 1074305]”, the “YAP1 (% UTC)” value is reported as 64 % UTC. For “1075489 (antisense kG*kA*kG*d[5mC]*dA*dA*d[5mC]*dA*dA*d[5mC]*dT*dA*dT*kG*kA*kG) [Compound 1075489]”, the “YAP1 (% UTC)” value was 51 % UTC. “1074625 (antisense kA*kT*kA*dA*dG*dG*dG*d[5mC]*dT*dT*dA*dT*dT*k[5mC]*kT*kA) [Compound 1074625]” was tested, and the “YAP1 (% UTC)” value was 42 % UTC. With “1075553 (kT*kG*kA*dT*dT*dA*dT*dA*dA*d[5mC]*dA*dT*dG*k[5mC]*kT*kG; antisense) [Compound 1075553]” the “YAP1 (% UTC)” value was 77 % UTC. For “1075745 (k[5mC]*kT*kT*d[5mC]*dA*dA*dA*dA*dG*d[5mC]*dA*d[5mC]*dG*kG*kT*kG; antisense) [Compound 1075745]”, the “YAP1 (% UTC)” value was 58 % UTC. In the case of “1074913 (antisense k[5mC]*kA*kT*d[5mC]*d[5mC]*d[5mC]*dG*dA*dG*dT*dG*dG*dG*k[5mC]*kT*kA) [Compound 1074913]”, the “YAP1 (% UTC)” value is reported as 99 % UTC. In the case of “1076513 (antisense k[5mC]*kA*kT*dT*dA*dA*d[5mC]*dA*d[5mC]*dT*d[5mC]*d[5mC]*dT*k[5mC]*kA*kG) [Compound 1076513]”, the “YAP1 (% UTC)” value is reported as 36 % UTC.

Same assay, conditions: Table 16; A-431 cells, 5,000 cells per well, free uptake, 2,000 nM, approximately 48 hours; RTS4814; normalized to RIBOGREEN; Yap1 mRNA relative to untreated control cells
In the case of “1074370 (antisense kT*kT*kG*dA*dT*dA*dG*dT*dA*dT*d[5mC]*dA*d[5mC]*k[5mC]*kT*kG) [Compound 1074370]”, the “YAP1 (% UTC)” value is reported as 8 % UTC. In the case of “1075746 (kG*kA*kT*dT*dA*dA*d[5mC]*d[5mC]*d[5mC]*dA*dG*dT*dA*kG*kA*kG; antisense) [Compound 1075746]”, the “YAP1 (% UTC)” value is reported as 28 % UTC. With “1075202 (antisense kA*kA*kT*dT*dA*dT*dA*dT*dA*dA*dG*dG*d[5mC]*kT*kG*kT) [Compound 1075202]” the “YAP1 (% UTC)” value was 26 % UTC. For “1076450 (k[5mC]*kT*kT*dG*dA*dA*dT*dA*dG*d[5mC]*dT*dA*dT*kG*kT*kG; antisense) [Compound 1076450]”, the “YAP1 (% UTC)” value was 13 % UTC. For “1075586 (kT*kA*kT*dT*dA*dG*d[5mC]*dA*d[5mC]*d[5mC]*dT*dG*dG*kG*kT*kA; antisense) [Compound 1075586]”, the “YAP1 (% UTC)” value was 64 % UTC. In the case of “1075266 (antisense kT*kA*kT*dT*dA*dG*dG*dA*d[5mC]*dA*dA*dA*dG*kT*kA*k[5mC]) [Compound 1075266]”, the “YAP1 (% UTC)” value is reported as 57 % UTC. “1076098 (kT*kT*kA*d[5mC]*dA*dA*dT*dA*dA*dT*dA*dA*dA*k[5mC]*kG*kA; antisense) [Compound 1076098]” was tested, and the “YAP1 (% UTC)” value was 94 % UTC. For “1075330 (kG*kA*kG*dG*dG*dA*dA*dA*dA*d[5mC]*dT*dT*dT*kG*k[5mC]*kA; antisense) [Compound 1075330]”, the “YAP1 (% UTC)” value was 63 % UTC. With “1075490 (antisense k[5mC]*kA*kT*dA*dT*dA*d[5mC]*dG*d[5mC]*dA*dA*dT*dT*kA*kG*kT) [Compound 1075490]” the “YAP1 (% UTC)” value was 27 % UTC.

Same assay, conditions: Table 17; A-431 cells, 5,000 cells per well, free uptake, 2,000 nM, approximately 48 hours; RTS4814; normalized to RIBOGREEN; Yap1 mRNA relative to untreated control cells
In the case of “1075139 (antisense k[5mC]*k[5mC]*k[5mC]*dA*dA*dA*dT*dA*dA*dT*dA*dG*dA*kT*kA*k[5mC]) [Compound 1075139]”, the “YAP1 (% UTC)” value is reported as 65 % UTC. “1074627 (antisense k[5mC]*k[5mC]*kT*dG*dT*dT*dA*dT*dG*dA*dA*d[5mC]*d[5mC]*k[5mC]*kT*kT) [Compound 1074627]” was tested, and the “YAP1 (% UTC)” value was 3 % UTC. For “1076099 (k[5mC]*k[5mC]*kT*d[5mC]*dA*dA*dA*dA*d[5mC]*dT*dT*dG*dG*kA*kT*kT; antisense) [Compound 1076099]”, the “YAP1 (% UTC)” value was 41 % UTC. “1076483 (antisense kA*k[5mC]*kG*dG*dG*dA*dA*dA*dT*d[5mC]*dA*dT*dA*kT*kA*kG) [Compound 1076483]” was tested, and the “YAP1 (% UTC)” value was 5 % UTC. “1074595 (antisense kT*kA*kG*dA*dA*dG*dT*dA*dG*dG*dA*dG*d[5mC]*kA*kA*kG) [Compound 1074595]” was tested, and the “YAP1 (% UTC)” value was 4 % UTC. For “1076419 (kA*kT*kA*dT*dA*dA*dT*dA*dA*d[5mC]*d[5mC]*d[5mC]*dA*kT*kT*kG; antisense) [Compound 1076419]”, the “YAP1 (% UTC)” value was 47 % UTC. For “1075683 (k[5mC]*kT*kG*dA*dA*dA*dA*dA*dG*dT*dT*dA*dT*kG*k[5mC]*k[5mC]; antisense) [Compound 1075683]”, the “YAP1 (% UTC)” value was 56 % UTC. “1074211 (antisense k[5mC]*kT*kT*d[5mC]*d[5mC]*dG*dG*dA*dG*d[5mC]*d[5mC]*dT*d[5mC]*kA*kT*kG) [Compound 1074211]” was tested, and the “YAP1 (% UTC)” value was 67 % UTC. In the case of “1075267 (antisense k[5mC]*kT*kA*dT*dT*dT*dA*dG*dA*dA*dT*dA*dA*kG*kT*kG) [Compound 1075267]”, the “YAP1 (% UTC)” value is reported as 83 % UTC. “1075619 (k[5mC]*kT*kT*dA*dG*dA*dT*dA*d[5mC]*dT*dA*d[5mC]*dT*kT*kT*kG; antisense) [Compound 1075619]” was tested, and the “YAP1 (% UTC)” value was 54 % UTC.

Same assay, conditions: Yap1 mRNA remaining as percent of untreated control; 3-10-3 cEt gapmers; A-431 cells; Table 36
For “1075510 (kG*kA*kA*dT*dA*dA*d[5mC]*dA*d[5mC]*dA*dT*dA*dA*kT*k[5mC]*k[5mC]; antisense) [compound 1075510]”, the “YAP1 (% UTC)” value was 83 % UTC. With “1074614 (DNA kT*k[5mC]*kA*dT*dA*dG*d[5mC]*dT*dT*dA*dT*dA*dT*kT*kG*kA; antisense) [compound 1074614]” the “YAP1 (% UTC)” value was 49 % UTC. “1074966 (antisense kA*kT*kT*dG*dA*dA*dG*dT*dG*dT*dT*dT*dA*kG*kG*k[5mC]) [compound 1074966]” was tested, and the “YAP1 (% UTC)” value was 9 % UTC. “1074582 (DNA kT*kA*kA*dA*d[5mC]*d[5mC]*dA*d[5mC]*dT*dA*dT*dA*dA*kA*kG*k[5mC]; antisense) [compound 1074582]” was tested, and the “YAP1 (% UTC)” value was 18 % UTC. With “1074198 (antisense kT*kT*kG*d[5mC]*d[5mC]*d[5mC]*dG*dG*dG*dT*d[5mC]*d[5mC]*dG*kG*kA*k[5mC]) [compound 1074198]” the “YAP1 (% UTC)” value was 112 % UTC. In the case of “1074838 (kA*kT*kA*dA*d[5mC]*dA*dA*d[5mC]*dA*dT*dG*d[5mC]*dT*kT*kG*k[5mC]; antisense) [compound 1074838]”, the “YAP1 (% UTC)” value is reported as 9 % UTC. In the case of “1074134 (k[5mC]*kG*k[5mC]*dG*dG*d[5mC]*d[5mC]*d[5mC]*d[5mC]*dG*d[5mC]*dA*dT*k[5mC]*k[5mC]*k[5mC]; antisense) [compound 1074134]”, the “YAP1 (% UTC)” value is reported as 79 % UTC. “1074902 (antisense k[5mC]*kT*kA*dT*dT*dA*dA*d[5mC]*dT*dT*dT*dT*dG*kG*kG*k[5mC]) [compound 1074902]” was tested, and the “YAP1 (% UTC)” value was 54 % UTC.

Same assay, conditions: Yap1 mRNA remaining as percent of untreated control; 3-10-3 cEt gapmers; A-431 cells; Table 37
In the case of “1075479 (kG*kA*k[5mC]*dA*dA*dT*dA*dA*dA*dT*d[5mC]*dT*dG*k[5mC]*k[5mC]*kT; antisense) [compound 1075479]”, the “YAP1 (% UTC)” value is reported as 77 % UTC. In the case of “1074615 (DNA kT*kT*k[5mC]*dA*dT*dA*dG*d[5mC]*dT*dT*dA*dT*dA*kT*kT*kG; antisense) [compound 1074615]”, the “YAP1 (% UTC)” value is reported as 8 % UTC. With “1074455 (k[5mC]*kA*kT*dT*dA*dT*dG*dT*dG*dA*d[5mC]*dT*dA*kA*kT*kG; antisense) [compound 1074455]” the “YAP1 (% UTC)” value was 67 % UTC. With “1075191 (kA*k[5mC]*kG*dG*dG*dA*dA*dA*dG*dA*dA*dA*dG*kG*k[5mC]*k[5mC]; antisense) [compound 1075191]” the “YAP1 (% UTC)” value was 83 % UTC. “1075703 (kG*kG*kA*dG*dA*dA*dA*dG*d[5mC]*d[5mC]*dA*dT*d[5mC]*kA*kA*kG; antisense) [compound 1075703]” was tested, and the “YAP1 (% UTC)” value was 10 % UTC. In the case of “1075255 (kA*kA*kA*dT*dA*dT*d[5mC]*d[5mC]*dG*dT*dG*dT*d[5mC]*k[5mC]*kT*k[5mC]; antisense) [compound 1075255]”, the “YAP1 (% UTC)” value is reported as 16 % UTC.

Same assay, conditions: table after Table 37, headed TABLE 32 (gapmers targeting SEQ ID NO.: 3); A-431 cells, free uptake, 2,000 nM, approximately 48 hours, RTS4814
“1074886 (k[5mC]*kA*kG*dG*dG*d[5mC]*dT*dA*dA*d[5mC]*dT*d[5mC]*d[5mC]*kT*kG*k[5mC]; antisense) [compound 1074886]” was tested, and the “YAP1 (% UTC)” value was 104 % UTC. With “1074884 (kG*kG*kG*d[5mC]*dT*dA*dA*d[5mC]*dT*d[5mC]*d[5mC]*dT*dG*k[5mC]*k[5mC]*kG; antisense) [compound 1074884]” the “YAP1 (% UTC)” value was 110 % UTC.
